Structures can show the parent of a compound that is named as a salt. Each block holds one compound with its values, some of them ahead of it.
Legend:
Male NIH Swiss mice = test: Forced swim test (FST); type: in vivo; set-up: key to Dunett's Test (0.05) * against vehicle, # against Imipramine: * against vehicle; # against Imipramine; conditions: for Seconds of immobility: last 4 min of 6 min swim, n = 8; for Dunett's Test (0.05) * against vehicle, # against Imipramine: immobility time; for minimum effective dose (MED) in forced swim test: Dunett's Test (0.05) statistically significant
Excerpt: The forced swim test is a well established animal model for depression, anxiety and avolition (lack of motivation)(Porsolt, et al. Nature (1977) 266, 730) (J. M. Witkin et al., Trends Pharmacol Sci. 2005 26:609-17). It can also be used as a model for the treatment of negative symptoms of schizophrenia.
Male NIH Swiss mice (Harlan Sprague-Dawley) are housed 12 mice/cage for 7-10 days prior to testing. On the day of testing, mice weighing 25-30 g, are brought to the testing room at least 1 hr. prior to dosing. Mice are dosed (p.o.) at 6-8 min. intervals with either vehicle (1% CMC/0.5% SLS/0.08% povidone/0.05 antifoam for CB1 inverse agonists) or test compound and put it into a clean cage (4 mice/cage).
To test, mice are placed individually in clear plastic cylinders (about 10 cm diameter×25 cm height) filled to 6 cm with water at 22-25° C. for six min. The duration of immobility during the last 4 min. is recorded. A mouse is regarded as immobile when floating motionless or making only those movements necessary to keep its head above the water.
The immobility time (in seconds) is analyzed by ANOVA using Dunnett's test. The minimum effective dose (MED) is considered to be the lowest dose of test compound at which a statistically significant decrease in the immobility time is observed versus the vehicle control.

Rat oral bioavailability = type: in vivo; conditions: Sprague-Dawley, plasma, fasted male SD rats, IV 0.25 mg/kg (20% MEOP/80% water), PO 1 mg/kg (1% NaCMC/0.5% SLS/0.05% antifoam), based on AUC0-∞
Method: (§1) Cohorts of three or four 250-450 gram male Sprague-Dawley rats or approximately 10 kg Beagle dogs (female or male) are used. […] Dogs are administered i.v. by cannulated cephalic vein and blood collections are by jugular vein. Animals are first dosed at 0.25 mg/kg i.v. and blood samples (0.2 mL) are then collected using EDTA as an anticoagulant at 0.0830, 0.25, 0.50, 1, 2, 4, 8, 12, 24, 48, 72, 96, and 120 hours. Next after at least two days and after 18-24 hours fasting, the animals are dosed at 1.0 mg/kg by oral gavage. During the course of a study the total of blood (ml) collected is not to exceed 1% of total body weight in grams. Should larger blood volumes be required, the sampled blood volume is replace with heparinized whole blood from a donor animal. When using a cross-over study design, rats receive a volume of heparinized whole blood following the final sample of each study day approximately equal to that removed during study.
(§2) Compound plasma concentrations are measured by LC/MS/MS assays. Data are then analyzed using standard non-compartmental pharmacokinetic analysis. Oral bioavailability is calculated as: (AUC0-infinity,oral/AUC0-infinity,i.v.)×(Dose,i.v./Dose,oral)×100%

Dog oral bioavailability = type: in vivo; conditions: plasma; fasted male beagle dog; IV 0.25 mg/kg, PO 1 mg/kg; Mean±SD, n=3; based on AUC0-24hr
Method: as §1, §2

hCB-2 [1] = molecular target: T1, hCB-2 (Homo sapiens, UniProt P34972); test: hCB2-Sf9 agonist mode SPA GTP-γ-35S binding assay; type: biochemical; conditions: read-out: hCB-2 SPA GTPγS Sf9 Membrane Agonist Relative EC50
T1 construct: purchased Perkin Elmer, Boston, Mass; host or cells: Sf9 cell membranes
T1 sequence (P34972 whole entry): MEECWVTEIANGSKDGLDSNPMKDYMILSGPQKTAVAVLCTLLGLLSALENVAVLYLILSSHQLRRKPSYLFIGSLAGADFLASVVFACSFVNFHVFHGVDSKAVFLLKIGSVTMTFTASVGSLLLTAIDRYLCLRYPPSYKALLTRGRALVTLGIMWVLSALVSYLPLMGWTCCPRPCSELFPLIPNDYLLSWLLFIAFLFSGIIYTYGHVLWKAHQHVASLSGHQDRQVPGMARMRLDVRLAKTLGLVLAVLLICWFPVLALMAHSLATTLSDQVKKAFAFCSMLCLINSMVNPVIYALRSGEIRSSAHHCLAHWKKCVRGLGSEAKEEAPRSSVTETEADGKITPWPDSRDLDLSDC
Method: (§3) Compounds of the present invention may be tested for functional activity at the CB-1 and CB-2 receptors in both agonist and antagonist modes using SPA (Scintillation Proximity Assay) based GTP-γ-^35S binding assays. All assay components are prepared in assay buffer (20 mM HEPES, 100 mM NaCl, 5 mM MgCl2, pH 7.4) at room temperature. Semi-log dilutions of test compound are prepared in assay buffer containing BSA (0.125% final conc.) for the agonist mode assays. For the antagonist mode assays, test compounds are prepared in the same manner but also include an 80% efficacious dose of a full agonist (methanandamide). GTP-γ^35S binding for the antagonist assay may be measured in a 96 well format using a modification of an antibody capture technique previously described. (DeLapp, N W, et al. (1999) J Pharmacol Exp Ther 289:946-955.) The CB-2 receptor agonist activity may be measured using a similar method using hCB2-Sf9 membranes. The CB-1 receptor agonist activity may be measured using a whole membrane capture technique using hCB1-CHO membranes. All incubations are done at room temperature. […]
Data are analyzed as follows: Background is subtracted from all wells. […] Percent antagonist inhibition is calculated by first normalizing the data to the signal generated by a saturating concentration of the full agonist (methanandamide). […]

hCB-1 [2] = molecular target: T2, hCB-1 (Homo sapiens, UniProt P21554); test: hCB1-CHO agonist mode SPA GTP-γ-35S binding assay; type: biochemical; set-up: purchased Applied Cell Sciences, Rockville, Md; host or cells: CHO cell membranes; conditions: inverse agonism, read-out: hCB-1 SPA GTPγS CHO Membrane Agonist Relative EC50 inverse
T2 sequence (P21554 whole entry): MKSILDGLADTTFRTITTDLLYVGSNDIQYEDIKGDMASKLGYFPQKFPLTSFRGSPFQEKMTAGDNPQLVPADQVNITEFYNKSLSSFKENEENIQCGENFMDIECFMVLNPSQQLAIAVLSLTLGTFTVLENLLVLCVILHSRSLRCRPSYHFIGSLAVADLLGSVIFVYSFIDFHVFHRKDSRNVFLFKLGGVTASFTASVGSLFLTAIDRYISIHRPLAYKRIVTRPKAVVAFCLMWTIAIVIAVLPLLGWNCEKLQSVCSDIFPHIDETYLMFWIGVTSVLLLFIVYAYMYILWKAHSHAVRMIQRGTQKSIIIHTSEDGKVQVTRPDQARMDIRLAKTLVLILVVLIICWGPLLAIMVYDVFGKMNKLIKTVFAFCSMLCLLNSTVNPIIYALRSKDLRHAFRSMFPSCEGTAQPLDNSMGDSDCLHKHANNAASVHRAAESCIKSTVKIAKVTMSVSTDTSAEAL
Method: (§4) Compounds of the present invention may be tested for functional activity at the CB-1 and CB-2 receptors in both agonist and antagonist modes using SPA (Scintillation Proximity Assay) based GTP-γ-^35S binding assays. All assay components are prepared in assay buffer (20 mM HEPES, 100 mM NaCl, 5 mM MgCl2, pH 7.4) at room temperature. Semi-log dilutions of test compound are prepared in assay buffer containing BSA (0.125% final conc.) for the agonist mode assays. For the antagonist mode assays, test compounds are prepared in the same manner but also include an 80% efficacious dose of a full agonist (methanandamide). GTP-γ^35S binding for the antagonist assay may be measured in a 96 well format using a modification of an antibody capture technique previously described. (DeLapp, N W, et al. (1999) J Pharmacol Exp Ther 289:946-955.) The CB-2 receptor agonist activity may be measured using a similar method using hCB2-Sf9 membranes. The CB-1 receptor agonist activity may be measured using a whole membrane capture technique using hCB1-CHO membranes. All incubations are done at room temperature.
hCB1-CHO membrane, GDP (1 μM final conc.), and saponin (10 μg/mL final conc., Sigma, St Louis, Mo.) are combined and prepared on ice as for the antagonist assays, above. Diluted test compounds, GTP-γ-^35S ([…] final conc.) and membranes are combined in the assay plate and incubated for 30 min. Then 1 mg/well Wheatgerm Agglutinin SPA beads (GE Healthcare, Piscataway, N.J.) are added, plates are sealed and vortexed and incubate for 1 hr. before spinning and counting in the same fashion as for the antagonist assays, above.
Data are analyzed as follows: Background is subtracted from all wells. Percent agonist efficacy is determine by normalizing agonist/inverse agonist dose response data to the response obtained for a full agonist (methanandamide). Percent antagonist inhibition is calculated by first normalizing the data to the signal generated by a saturating concentration of the full agonist (methanandamide). Then the data are analyzed using a 4-parameter logistic reduced fit (Activity Base™ and XLFit3™ from IDBS, Emeryville, Calif.). Kb values are determined using a modification of the Cheng-Prusoff relationship: Kb=IC50/(1+[agonist]/EC50), where “IC50” is determined from a four parameter fit of displacement curves, “[agonist]” is the agonist challenge concentration (nM), and “EC50” is determined from a four parameter fit of a full agonist concentration response curve (Cheng and Prusoff 1973). Mean Kb values are calculated as a mean of at least three independent determinations±standard error of the mean (SEM). […]

hCB-1 [3] = molecular target: T2, hCB-1; test: hCB1-Sf9 antagonist mode SPA GTP-γ-35S binding assay; type: biochemical; set-up: purchased Applied Cell Sciences, Rockville, Md; conditions: Sf9 membrane 22.7 μg; antagonist mode vs methanandamide; read-out: hCB-1 SPA GTPγS Sf9 Membrane 22.7 μg Antagonist Kb
Method: as §3
(§5) Data are analyzed as follows: Background is subtracted from all wells. […] Percent antagonist inhibition is calculated by first normalizing the data to the signal generated by a saturating concentration of the full agonist (methanandamide). Then the data are analyzed using a 4-parameter logistic reduced fit (Activity Base™ and XLFit3™ from IDBS, Emeryville, Calif.). Kb values are determined using a modification of the Cheng-Prusoff relationship: Kb=IC50/(1+[agonist]/EC50), where “IC50” is determined from a four parameter fit of displacement curves, “[agonist]” is the agonist challenge concentration (nM), and “EC50” is determined from a four parameter fit of a full agonist concentration response curve (Cheng and Prusoff 1973). Mean Kb values are calculated as a mean of at least three independent determinations±standard error of the mean (SEM). […]

rCB-1 = molecular target: T3, rCB-1 (Rattus norvegicus, UniProt P20272); test: rCB1-CHO antagonist mode SPA GTP-γ-35S binding assay; type: biochemical; conditions: antagonist mode vs methanandamide; read-out: rCB-1 SPA GTPγS CHO Membrane Antagonist Kb
T3 construct: purchased Applied Cell Sciences, Rockville, Md; host or cells: CHO cell membranes
T3 sequence (P20272 whole entry): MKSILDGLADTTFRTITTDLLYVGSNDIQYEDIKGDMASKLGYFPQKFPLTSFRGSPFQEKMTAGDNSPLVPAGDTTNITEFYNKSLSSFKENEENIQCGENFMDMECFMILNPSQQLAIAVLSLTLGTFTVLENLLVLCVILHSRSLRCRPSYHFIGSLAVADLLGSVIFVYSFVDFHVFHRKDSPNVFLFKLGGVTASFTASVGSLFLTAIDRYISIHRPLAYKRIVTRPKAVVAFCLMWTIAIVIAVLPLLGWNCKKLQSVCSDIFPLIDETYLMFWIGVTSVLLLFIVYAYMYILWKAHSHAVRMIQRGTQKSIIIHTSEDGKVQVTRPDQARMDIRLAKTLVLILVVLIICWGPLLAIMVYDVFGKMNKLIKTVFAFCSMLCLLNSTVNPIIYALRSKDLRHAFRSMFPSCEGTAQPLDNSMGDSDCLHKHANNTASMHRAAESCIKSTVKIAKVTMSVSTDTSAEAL
Method: as §4
(§6) hCB1-CHO or rCB1-CHO membranes (Applied Cell Sciences, Rockville, Md.) and GDP (1 μM final) are added to ice cold assay buffer and homogenized. […] Plates are then centrifuged at 700×g for 10 min. and the radioactivity counted.
(§7) Data are analyzed as follows: Background is subtracted from all wells. […] Percent antagonist inhibition is calculated by first normalizing the data to the signal generated by a saturating concentration of the full agonist (methanandamide). Then the data are analyzed using a 4-parameter logistic reduced fit (Activity Base™ and XLFit3™ from IDBS, Emeryville, Calif.). Kb values are determined using a modification of the Cheng-Prusoff relationship: Kb=IC50/(1+[agonist]/EC50), where “IC50” is determined from a four parameter fit of displacement curves, “[agonist]” is the agonist challenge concentration (nM), and “EC50” is determined from a four parameter fit of a full agonist concentration response curve (Cheng and Prusoff 1973). […]

hCB-1 [4] = molecular target: T2, hCB-1; test: hCB1-CHO antagonist mode SPA GTP-γ-35S binding assay; type: biochemical; set-up: purchased Applied Cell Sciences, Rockville, Md; host or cells: CHO cell membranes; conditions: antagonist mode vs methanandamide; read-out: hCB-1 SPA GTPγS CHO Membrane Antagonist Kb
Method: as §4, §6, §7

hCB-2 [5] = molecular target: T1, hCB-2; test: hCB2-Sf9 antagonist mode SPA GTP-γ-35S binding assay; type: biochemical; conditions: antagonist mode vs methanandamide; read-out: hCB-2 SPA GTPγS Sf9 Membrane Antagonist Kb
Method: as §3, §5

Structure (SMILES): CC(C)(N[C@@H]1C[C@H](c2cccc(OC(F)(F)F)c2)N(c2ccc(C#N)cc2)C1=O)c1cccc(C(F)(F)F)n1 [Example 27, 4-[(3R,5R)-3-[1-Methyl-1-(6-trifluoromethyl-pyridin-2-yl)-ethylamino]-2-oxo-5-(3-trifluoromethoxy-phenyl)-pyrrolidin-1-yl]-benzonitrile]
- Seconds of immobility (Male NIH Swiss mice; 1 mg/Kg p.o., mice): 170 s
- Dunett's Test (0.05) * against vehicle, # against Imipramine (Male NIH Swiss mice; 1 mg/Kg): #
- Seconds of immobility (Male NIH Swiss mice; 3 mg/Kg p.o., mice): 128 s
- Dunett's Test (0.05) * against vehicle, # against Imipramine (Male NIH Swiss mice; 3 mg/Kg): *
- Seconds of immobility (Male NIH Swiss mice; 10 mg/Kg p.o., mice): 80 s
- Dunett's Test (0.05) * against vehicle, # against Imipramine (Male NIH Swiss mice; 10 mg/Kg): *
- duration of immobility in forced swim test (Male NIH Swiss mice; mice, p.o., result in words): significantly reduce the duration of mobility in a dose dependent manner

Structure (SMILES): CC(C)(N[C@@H]1C[C@H](c2cccc(OC(F)(F)F)c2)N(c2ccc(C(F)(F)F)cc2)C1=O)c1cccc(C(F)(F)F)n1 [Example 11, (3R,5R)-3-[1-Methyl-1-(6-trifluoromethyl-pyridin-2-yl)-ethylamino]-5-(3-trifluoromethoxy-phenyl)-1-(4-trifluoromethyl-phenyl)-pyrrolidin-2-one]
- minimum effective dose (MED) in forced swim test (Male NIH Swiss mice; mice, p.o.): 3 mg/kg

- bioavailability (Rat oral bioavailability): 58 ± 8.6%
- bioavailability (Dog oral bioavailability): 33 ± 13%
Structure (SMILES): CC(C)(N[C@@H]1C[C@H](c2cccc(OC(F)(F)F)c2)N(c2ccc(C#N)cc2)C1=O)c1cccc(C(F)(F)F)n1 [Example 27HCl Salt, 4-[(3R,5R)-3-[1-methyl-1-(6-trifluoromethyl-pyridin-2-yl)-ethylamino]-2-oxo-5-(3-trifluoromethoxy-phenyl)-pyrrolidin-1-yl]-benzonitrile hydrochloride]

- EC50 (hCB-2 [1]): > 100000 nM
- EC50 (hCB-1 [2]): 3.02 nM
- Kb (hCB-1 [3]): 1.76 nM
- Kb (rCB-1): 0.756 nM
- Kb (hCB-1 [4]): 2.37 nM
- Kb (hCB-2 [5]): > 11900 nM
Structure (SMILES): CC(C)(N[C@@H]1C[C@H](c2cccc(C(F)(F)F)c2)N(c2ccc(OC(F)(F)F)cc2)C1=O)c1cccc(C(F)(F)F)n1 [Example 28, (3R,5R)-3-[1-Methyl-1-(6-trifluoromethyl-pyridin-2-yl)-ethylamino]-5-(3-trifluoromethyl-phenyl)-1-(4-trifluoromethoxy-phenyl)-pyrrolidin-2-one]
- minimum effective dose (MED) in forced swim test (Male NIH Swiss mice; mice, p.o.): 10 mg/kg

Structure (SMILES): CN(C)CCCN1c2ccccc2CCc2ccccc21 [Imipramine, reference compound]
- Dunett's Test (0.05) * against vehicle, # against Imipramine (Male NIH Swiss mice; 15 mg/Kg): *
- Seconds of immobility (Male NIH Swiss mice; 15 mg/Kg, mice): 80 s

— patent publication US8426448B2, “1,5-diphenyl-pyrrolidin-2-one compounds as CB-1 ligands” (Eli Lilly and Company, priority 2008, dated 2013)
